Assay results as given in patent US7470446B2, “Method and system for supplying amino acids or chemical derivatives in liquid form to ruminant livestock” (Archer-Daniels-Midland Company, priority 2000, dated 2008).
Read-outs that look alike come from different tables or passages of the source.

Test: Plasma lysine response after liquid lysine drench
Format: in vivo, bovines
Details: cattle (bovine), oral, 60 g; for concentration at 148 min: 148 minutes (so in the source)
Text: The following study, performed using liquid lysine supplied in a 60-gram amino acid dose in a liquid drench to two bovines, gave the following response curves in the plasma level of the lysine, which is an index of its absorption by the animals, and illustrates that the esophageal muscle reflex is active: […]

[1] = Cow 1, 60-gram dose, read-out: Cow 1, plasma lysine
[2] = Cow 2, 60-gram dose, read-out: Cow 2, plasma lysine

What does the source list for `NCCCC[C@H](N)C(=O)O` [liquid lysine, lysine]?
concentration at 0 min (Cow 1, 60-gram amino acid dose, read-out: Cow 1, plasma lysine): 10000 ng/mL; concentration at 80 min [1]: 11300 ng/mL; concentration at 148 min [1]: 19700 ng/mL; concentration at 160 min [1]: 12400 ng/mL; concentration at 240 min [1]: 16100 ng/mL; concentration at 360 min [1]: 17300 ng/mL; concentration at 420 min [1]: 17500 ng/mL; concentration at 540 min [1]: 19300 ng/mL; concentration at 600 min [1]: 15400 ng/mL; concentration at 24 h [1]: 14400 ng/mL; concentration at 0 min (Cow 2, 60-gram amino acid dose, read-out: Cow 2, plasma lysine): 10700 ng/mL; concentration at 80 min [2]: 10800 ng/mL; concentration at 148 min [2]: 20000 ng/mL; concentration at 160 min [2]: 13600 ng/mL; concentration at 240 min [2]: 22400 ng/mL; concentration at 360 min [2]: 24200 ng/mL; concentration at 420 min [2]: 24200 ng/mL; concentration at 540 min [2]: 17000 ng/mL; concentration at 600 min [2]: 14200 ng/mL; concentration at 24 h [2]: 12000 ng/mL
